# In PMC2561905 (Biochemistry, 2008):
# Read-outs that look alike come from different tables or passages of the source.
# B1: LLhP: chimeric repressor: LacI DNA-binding domain, LacI linker and PurR regulatory domain; homodimer (protein)
# chain: MKPVTLYDVAEYAGVSYQTVSRVVNQASHVSAKTREKVEAAMAELNYIPNRVAQQLAGKQSLLIGVATSSLALHAPSQIVAAIKSRADQLGASVVVSMVERSGVEACKAAVHNLLAQRVSGLIINYPLDDQDAIAVEAACTNVPALFLDVSDQTPINSIIFSHEDGTRLGVEHLVALGHQQIALLAGPLSSVSARLRLAGWHKYLTRNQIQPIAEREGDWSAMSGFQQTMQMLNEGIVPTAMLVANDQMALGAMRAITESGLRVGADISVVGYDDTEDSSCYIPPLTTIKQDFRLLGQTSVDRLLQLSQGQAVKGNQLLPVSLVKRKTTLAPNATIKDVAKRANVSTTTVSHVINKTRFVAEETRNAVWAAIKELHYSPSAVARSLKVNHTKSIGLLATSSEAAYFAEIIEAVEKNCFQKGYTLILGNAWNNLEKQRAYLSMMAQKRVDGLLVMCSEYPEPLLAMLEEYRHIPMVVMDWGEAKADFTDAVIDNAFEGGYMAGRYLIERGHREIGVIPGPLERNTGAGRLAGFMKAMEEAMIKVPESWIVQGDFEPESGYRAMQQILSQPHRPTAVFCGGDIMAMGALCAADEMGLRVPQDVSLIGYDNVRNARYFTPALTTIHQPKDSLGETAFNMLLDRIVNKREEPQSIEVHPRLIERRSVADGPFRDYRR
# B2: LacI: lactose repressor protein, naturally-occurring LacI/GalR homologue used for comparison (protein, UniProt P03023 1-360, looked up)
# Lactose operon repressor: MKPVTLYDVAEYAGVSYQTVSRVVNQASHVSAKTREKVEAAMAELNYIPNRVAQQLAGKQSLLIGVATSSLALHAPSQIVAAIKSRADQLGASVVVSMVERSGVEACKAAVHNLLAQRVSGLIINYPLDDQDAIAVEAACTNVPALFLDVSDQTPINSIIFSHEDGTRLGVEHLVALGHQQIALLAGPLSSVSARLRLAGWHKYLTRNQIQPIAEREGDWSAMSGFQQTMQMLNEGIVPTAMLVANDQMALGAMRAITESGLRVGADISVVGYDDTEDSSCYIPPLTTIKQDFRLLGQTSVDRLLQLSQGQAVKGNQLLPVSLVKRKTTLAPNTQTASPRALADSLMQLARQVSRLESGQ
# Key:
# I48S [1] = details: read-out: Operator capture by LLhP and variants (× 10^-7 M hypoxanthine), lacO^1; [co-repressor]mid; SD, n = 3
# Q55T [2] = details: read-out: Operator capture by LLhP and variants (× 10^-7 M hypoxanthine), lacO^disC; [co-repressor]mid; SD, n = 3
# I48V [3] = details: read-out: Operator capture by LLhP and variants (× 10^-7 M hypoxanthine), lacO^sym; [co-repressor]mid; SD, n = 3
# Q55V [4] = details: read-out: Operator capture by LLhP and variants (× 10^-7 M hypoxanthine), lacO^sym; [co-repressor]mid; SD, n = 3
# Q55T [5] = details: read-out: Operator capture by LLhP and variants (× 10^-7 M hypoxanthine), lacO^1; [co-repressor]mid; SD, n = 3
# I48V [6] = details: read-out: Operator capture by LLhP and variants (× 10^-7 M hypoxanthine), lacO^disC; [co-repressor]mid; SD, n = 3
# Q55T [7] = details: read-out: Operator capture by LLhP and variants (× 10^-7 M hypoxanthine), lacO^sym; [co-repressor]mid; SD, n = 3
# S61C [8] = details: read-out: Operator capture by LLhP and variants (× 10^-7 M hypoxanthine), lacO^1; [co-repressor]mid; SD, n = 3
# LLhP [9] = details: read-out: Operator capture by LLhP and variants (× 10^-7 M hypoxanthine), lacO^1; [co-repressor]mid; SD, n = 3
# S61M [10] = details: read-out: Operator capture by LLhP and variants (× 10^-7 M hypoxanthine), lacO^1; [co-repressor]mid; SD, n = 3
# S61C [11] = details: read-out: Operator capture by LLhP and variants (× 10^-7 M hypoxanthine), lacO^disC; [co-repressor]mid; SD, n = 3
# I48S [12] = details: read-out: Operator capture by LLhP and variants (× 10^-7 M hypoxanthine), lacO^sym; [co-repressor]mid; SD, n = 3
# I48V [13] = details: read-out: Operator capture by LLhP and variants (× 10^-7 M hypoxanthine), lacO^1; [co-repressor]mid; SD, n = 3
# LLhP [14] = details: read-out: Operator capture by LLhP and variants (× 10^-7 M hypoxanthine), lacO^sym; [co-repressor]mid; SD, n = 3
# Q55V [15] = details: read-out: Operator capture by LLhP and variants (× 10^-7 M hypoxanthine), lacO^1; [co-repressor]mid; SD, n = 3
# I48S [16] = details: read-out: Operator capture by LLhP and variants (× 10^-7 M hypoxanthine), lacO^disC; [co-repressor]mid; SD, n = 3
# LLhP [17] = details: read-out: Operator capture by LLhP and variants (× 10^-7 M hypoxanthine), lacO^disC; [co-repressor]mid; SD, n = 3
# S61M [18] = details: read-out: Operator capture by LLhP and variants (× 10^-7 M hypoxanthine), lacO^disC; [co-repressor]mid; SD, n = 3
# Q55V [19] = details: read-out: Operator capture by LLhP and variants (× 10^-7 M hypoxanthine), lacO^disC; [co-repressor]mid; SD, n = 3
# lacO^disC operator DNA = assay: Nitrocellulose filter binding, DNA-binding affinity for lacO^disC; details: LLhP+HX compared with LacI without inducer
# lacO^1 operator DNA = assay: Operator capture experiment with lacO^1; type: binding, E. coli; details: curves super-imposable for three different operator sequences
# lacO^sym operator DNA = details: LacI without inducer; cited from earlier work
molecule,measurement,setting,value
"O=c1[nH]cnc2[nH]cnc12 [hypoxanthine, hypoxanthine (HX)]",EC50,I48S [1],950 ± 70 nM
same,EC50,Q55T [2],2100 ± 160 nM
same,EC50,I48V [3],570 ± 50 nM
same,EC50,Q55V [4],850 ± 60 nM
same,EC50,Q55T [5],1000 ± 80 nM
same,EC50,I48V [6],3300 ± 160 nM
same,EC50,Q55T [7],430 ± 40 nM
same,EC50,S61C [8],4700 ± 410 nM
same,EC50,LLhP [9],410 ± 70 nM
same,EC50,S61M [10],5900 ± 340 nM
same,EC50,S61C [11],8000 ± 270 nM
same,EC50,I48S [12],670 ± 60 nM
same,EC50,I48V [13],880 ± 60 nM
same,EC50,LLhP [14],550 ± 230 nM
same,EC50,Q55V [15],1000 ± 130 nM
same,EC50,I48S [16],1600 ± 180 nM
same,EC50,LLhP [17],370 ± 80 nM
same,EC50,S61M [18],11700 ± 1200 nM
same,EC50,Q55V [19],2200 ± 80 nM
B1,Tighter binding of lacO^disC than LacI,lacO^disC operator DNA,~30 fold
same,Operator capture mid-point,lacO^1 operator DNA,around 4.4 × 10 ^−7 M hypoxanthine
B2,Tighter binding of lacO^sym than lacO^1,lacO^sym operator DNA,~10 fold
